Results from patent US7875599B2, “C-17-heteroaryl steroidal CYP17 inhibitors/antiandrogens, in vitro biological activities, pharmacokinetics and antitumor activity” (University of Maryland, priority 2005, dated 2011).
Like-named read-outs stand apart in the source and are kept apart here.

Key:
[1] = target: T1, human 5α-reductase type 2 (Homo sapiens, UniProt P31213); experiment: Human 5α-reductase type 2 assay (BPH tissue homogenate)
T1 sequence (P31213 1-254): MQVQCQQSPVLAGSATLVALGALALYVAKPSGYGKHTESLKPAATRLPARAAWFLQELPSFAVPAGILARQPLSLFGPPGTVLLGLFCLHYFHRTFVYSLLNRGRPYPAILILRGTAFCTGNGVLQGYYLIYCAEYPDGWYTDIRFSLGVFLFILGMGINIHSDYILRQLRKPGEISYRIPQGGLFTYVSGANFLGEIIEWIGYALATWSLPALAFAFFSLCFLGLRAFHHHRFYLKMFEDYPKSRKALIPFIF

[2] = Pharmacokinetics after single s.c. dose in male SCID mice; format: in vivo, mouse; settings: for peak plasma level: mice (as printed in summary b4); for half-life: male, SCID
Excerpt: Pharmacokinetics of 5 and 6 and metabolism of 5: The pharmacokinetic properties in male SCID mouse for the two lead compounds, 5 and 6 are studied following our recently described procedure for other CYP17 inhibitors (Nnane et al., “Pharmacokinetic profile of 3β-hydroxy-17-(1H-123-triazol-1-yl)androsta-5,16-diene (VN/87-1), a potent androgen synthesis inhibitor in mice”, J. Steroid Biochem. Molec. Biol., 2001, 71, 145-152; and Handratta et al., “Potent CYP17 inhibitors: improved syntheses, pharmacokinetics and anti-tumor activity in the LNCaP human prostate cancer model”, J. Steroid Biochem. Molec. Biol., 2004, 92, 155-165.
Pharmacokinetic Studies All animal studies are performed according to the guidelines and approval of the Animal Care Committee of the University of Maryland School of Medicine, Baltimore. Male SCID mice weighing 20-22 gm (8-10 weeks old) obtained from NCI, Frederick, Md., USA are maintained in a controlled environment of about 25° C., 50% relative humidity and 12 h of light and 12 h of dark cycles and allowed free access to food and water. Compounds 5 and 6 are formulated in 40% β-cyclodextrin in water and a single subcutaneous dose is given to mice. The animals are sacrificed at various times up to 6 h after drug administration and blood was obtained by cardiac puncture under light halothane (Ayerst, New York, N.Y., USA) anesthesia.
HPLC Analysis: Chromatographic separations and quantification of the steroids and the appropriate internal standards are achieved by a reverse phase HPLC method on a Waters® Novapak® C18 column (3.9×150 mm) protected by Waters® guard cartridge packed with pellicle C18 as previously described. Briefly, the HPLC system used in this study consisted of Waters® solvent delivery system, Waters® controller (Milford, Mass.), coupled to a Waters® 717^plus autosampler and a Waters® 996 photodiode array detector operated at 242.7 nm. The mobile phase composition is Water/MeOH/CH3CN (35:35:30, v/v/v+200 μl, of Et3N and 0.77 g of NH4OAc per 1000 mL of mobile phase) at a flow rate of 1.0 mL/min. The HPLC analysis is performed at ambient temperature and data acquisition and management ius achieved with a Waters® millennium chromatography manager.
Sample Preparation: Test tubes containing mouse plasma (200 μL), 5 or 6 and VN/85-1 (internal standard, 10 μL of 100 μg/mL), are extracted with diethyl ether (2×2 mL) using a vortex mixer for 3 minutes and centrifuged at 3000 g for 5 min. The organic layers are evaporated to dryness under a gentle stream of air. The residue is reconstituted in an aliquot of the mobile phase (100 μL) and filtered using 0.2 μm Teflon filters before HPLC analysis. Calibration Curve and HPLC Assay Validation: The calibration curves for 5 in plasma and tissue and for 6 in plasma are constructed by spiking varying amounts of the compounds into extraction tubes (duplicate) containing plasma (200 μL) and tissue preparations (200 μL) from untreated animals to give final concentrations of 0.1-100.0 μg/mL. Appropriate blank extraction tubes are also prepared and an aliquot of the internal standard is added into each extraction tube to give a final concentration of 5 μg/ml. The calibration samples are taken through the sample preparation procedure as described above. An aliquot of the reconstituted extract (50 μl) is injected into the HPLC system and the ratio of the peak areas for each analyte to that of the internal standard are plotted against concentrations of 5 or 6. The precision and accuracy of the assays are determined from a range of known concentrations of the inhibitors in blank plasma and taken through the HPLC procedure. The study is repeated on three separate occasions.
Data Analysis: Pharmacokinetic calculations are performed as previously described. The non-compartmental pharmacokinetic calculations are performed using WinNOnlin (Scientific Consulting Inc.). […]

[3] = target: T2, human 5α-reductase type 1 (Homo sapiens, UniProt P18405); experiment: Human 5α-reductase type 1 assay (DU-145 cell line)
T2 sequence (P18405 1-259): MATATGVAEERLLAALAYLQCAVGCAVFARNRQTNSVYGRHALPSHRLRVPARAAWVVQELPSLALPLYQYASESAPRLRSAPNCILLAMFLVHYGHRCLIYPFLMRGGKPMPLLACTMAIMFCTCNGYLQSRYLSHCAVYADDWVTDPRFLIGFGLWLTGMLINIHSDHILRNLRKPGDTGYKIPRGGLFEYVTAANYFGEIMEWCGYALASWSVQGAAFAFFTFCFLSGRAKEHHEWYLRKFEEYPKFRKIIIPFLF

CYP17 = target: T3, CYP17 (Homo sapiens, UniProt P05093); experiment: CYP17 inhibition, acetic acid releasing assay with intact P450c17-expressing E. coli
T3 sequence (P05093 1-508): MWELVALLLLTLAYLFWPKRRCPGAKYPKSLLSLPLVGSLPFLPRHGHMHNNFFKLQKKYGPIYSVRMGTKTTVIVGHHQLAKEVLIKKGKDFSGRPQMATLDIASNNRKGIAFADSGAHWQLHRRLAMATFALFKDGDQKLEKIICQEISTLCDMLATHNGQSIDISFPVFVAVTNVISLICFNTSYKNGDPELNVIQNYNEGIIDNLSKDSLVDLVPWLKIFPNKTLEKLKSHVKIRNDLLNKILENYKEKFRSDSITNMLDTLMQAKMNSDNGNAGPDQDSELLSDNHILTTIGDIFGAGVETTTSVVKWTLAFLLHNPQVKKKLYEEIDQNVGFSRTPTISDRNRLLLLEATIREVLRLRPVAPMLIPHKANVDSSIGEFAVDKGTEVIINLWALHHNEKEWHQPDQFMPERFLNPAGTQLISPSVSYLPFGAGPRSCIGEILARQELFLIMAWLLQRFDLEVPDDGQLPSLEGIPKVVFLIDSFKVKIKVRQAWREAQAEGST

[4] = mouse, plasma, sc, 50 mg/kg, 50 mg/kg s.c., male SCID mice

`C[C@]12CC[C@H](O)CC1=CC[C@@H]1[C@@H]2CC[C@]2(C)C(n3cnc4ccccc43)=CC[C@@H]12` [Compound 5, 3β-Hydroxy-17-(1H-benzimidazol-1-yl)androsta-5,16-diene] gave an inhibition at 10 µM ([1]; read-out: 5α-Reductase type 2 % inhibition at 10 μM) of 53%, an AUC ([2]; 50 mg/kg s.c., male SCID mice) of 1440.00 ± 60.23 µg·min/mL and a Cmax ([2]; 50 mg/kg s.c., male SCID mice) of 16.82 ± 0.37 µg/mL. The MRT ([2]; 50 mg/kg s.c., male SCID mice) was 65.40 ± 0.60 min, the Tmax ([2]; 50 mg/kg s.c., male SCID mice) was 30.0 min and the Vd ([2]; 50 mg/kg s.c., male SCID mice) was 2098.99 ± 4. mL/kg. It also gave a peak plasma level ([2]; 50 mg/kg s.c.) of 16.82 ng/mL, an AUC ([2]; 100 mg/kg s.c., male SCID mice) of 1813.94 ± 10.94 µg·min/mL and a Cmax ([2]; 100 mg/kg s.c., male SCID mice) of 32.23 ± 0.34 µg/mL. The MRT ([2]; 100 mg/kg s.c., male SCID mice) was 60.46 ± 1.54 min, the Tmax ([2]; 100 mg/kg s.c., male SCID mice) was 30.00 ± 0.0 min and the Vd ([2]; 100 mg/kg s.c., male SCID mice) was 113276.39 ± 26.71 mL/kg. For the same compound, the half-life [2, 4] was 44.2 min, the half-life ([2]; mouse, plasma, sc, 100 mg/kg, 100 mg/kg s.c., male SCID mice) was 36.6 ± 1.6 min and the “clearance from the systemic circulation” value ([2]; s.c. administration, male SCID mice) was 1986.14 mL/h/kg. For the same compound, the inhibition at 10 µM ([3]; read-out: 5α-Reductase type 1 % inhibition at 10 μM) was 4% and the IC50 (CYP17) was 300 nM.
`C[C@]12CCC(=O)C=C1CC[C@@H]1[C@@H]2CC[C@]2(C)C(n3cnc4ccccc43)=CC[C@@H]12` [Compound 6, 17-(1H-benzimidazol-1-yl)androsta-4,16-diene-3-one] showed an IC50 [1] of 480 nM, a Kel ([2]; 50 mg/kg s.c., male SCID mice) of 0.0183 ± 0.004 min⁻¹ and a Vd ([2]; 50 mg/kg s.c., male SCID mice) of 4207.24 ± 6.25 mL/kg. The t1/2 ([2]; 50 mg/kg s.c., male SCID mice, plasma) was 37.93 ± 1.15 min, the peak plasma level ([2]; 50 mg/kg s.c.) was 5.15 ng/mL and the “metabolism of the compound detected in plasma” value ([2]; in vivo pharmacokinetics in mice) was “did not detect any metabolism(s)”. It also gave a half-life [2, 4] of 39.9 min, an AUC ([2]; mouse, plasma, sc, 50 mg/kg s.c., male SCID mice, read-out: AUC (converted)) of 647 µg·min/mL and a Cmax ([2]; mouse, plasma, sc, 50 mg/kg s.c., male SCID mice, read-out: Cmax) of 5.15 ± 0.09 µg/mL. The MRT ([2]; mouse, plasma, sc, 50 mg/kg s.c., male SCID mice, read-out: MRT (converted)) was 80 min, the Tmax ([2]; mouse, plasma, sc, 50 mg/kg s.c., male SCID mice, read-out: Tmax (converted)) was 60 min and the “time after administration at which compound was not detected in plasma” value ([2]; s.c. administration, mice) was 8 h. For the same compound, the IC50 [3] was 770 nM and the IC50 (CYP17) was 915 nM.
